From patent US4321381A, “Ergot derivatives” (Farmitalia Carlo Erba S.p.A., priority 1978, dated 1982)

Assays:
[1] = tested on: spontaneously hypertensive male rats, strain MHS; assay: Anti-hypertensive activity in the spontaneously hypertensive rat (MHS): blood pressure and heart rate at the tail; assay type: in vivo
Method: 1. Spontaneously Hypertensive Rat (MHS)
Four spontaneously hypertensive male rats, strain MHS, weight 250 to 300 g for each group were used. The animals were treated for four consecutive days. The drugs were administered by gastric gavage while suspended in 5% arabic gum (0.2 ml/100 g body weight), and blood pressure (BP) and heart rate (HR) were measured at the tail by BP Recorder W+W. Blood pressure and heart rate were measured on the first and fourth day of treatment 1 hour before and 1 and 5 hours after drug administration.

[2] = tested on: normotensive rats; assay: Blood pressure and heart rate in the conscious normotensive rat (NR); assay type: in vivo; conditions: 5 mg/kg os
Method: Blood pressure recordings have been made in conscious normotensive unrestrained rats weighing approximately 300 g, via a catheter chronically inserted into the left common carotid artery. Implantation of arterial cannula was made under sodium pentobarbital anesthesia (50 mg/kp i.p.) A 1 cm long incision was made through the previously shaved ventral surface of the neck and the tissues overlying the trachea parted by blunt dissection to reveal the carotid artery. The polyethylene catheter used was made with PE 50 tubing, previously filled with saline containing 250 I.U./ml heparin. The tip of the cannula was pushed at least 2 cm inside the vessel toward the heart. The cannula was then firmly tied and passed beneath the skin to emerge from a small incision in the back of the neck. During the post-operative period and before the start of each recording session, the cannula was flushed through daily with saline containing heparin (250 I.U./ml). The experiments were performed two days after surgery. Drugs were administered by gastric gavage.

[3] = Acute toxicity (LD50) in mice; assay type: in vivo, mouse; conditions: mouse, in vivo; male mice; oral; observed for seven days
From the text: Evaluation of the Toxicity (LD50)
Ten male mice for each group were orally treated with drugs at different dose levels for the determination of lethal dose 50 (LD50).

SMILES: C=CCN1C[C@H](CC(C#N)C(N)=O)C[C@@H]2c3cccc4[nH]cc(c34)C[C@H]21 (stereo partly drawn) [355/1266, 2-Cyano-3-(6'-allylergoline-8'β)-propionamide]
- Change in BP, 1 hr after dose, first day ([1]; 2 mg/kg os): -14 mm Hg
- Change in BP, 5 hrs after dose, first day ([1]; 2 mg/kg os): -15 mm Hg
- Change in BP, 1 hr after dose, fourth day ([1]; 2 mg/kg os): -25 mm Hg
- Change in BP, 5 hrs after dose, fourth day ([1]; 2 mg/kg os): -45 mm Hg
- Change in BP, 1 hr after dose, first day ([1]; 5 mg/kg os): -14 mm Hg
- Change in BP, 5 hrs after dose, first day ([1]; 5 mg/kg os): -10 mm Hg
- Change in BP, 1 hr after dose, fourth day ([1]; 5 mg/kg os): -35 mm Hg
- Change in BP, 5 hrs after dose, fourth day ([1]; 5 mg/kg os): -60 mm Hg

SMILES: CN1C[C@H](CC(C#N)C(N)=O)C[C@@H]2c3cccc4[nH]cc(c34)C[C@H]21 (stereo partly drawn) [355/1057, 2-Cyano-3-(6'-methylergoline-8'β)-propionamide]
- Change in Blood Pressure after Treatment, 30' ([2]; 30'): -23 mm Hg
- Change in heart rate after treatment, 30' ([2]; 30'): -25 b/min
- Change in Blood Pressure after Treatment, 60' ([2]; 60'): -23 mm Hg
- Change in heart rate after treatment, 60' ([2]; 60'): -40 b/min
- Change in Blood Pressure after Treatment, 120' ([2]; 120'): -22 mm Hg
- Change in heart rate after treatment, 120' ([2]; 120'): -42 b/min
- Change in Blood Pressure after Treatment, 180' ([2]; 180'): -21.7 mm Hg
- Change in heart rate after treatment, 180' ([2]; 180'): -22 b/min
- Change in Blood Pressure after Treatment, 240' ([2]; 240'): -23 mm Hg
- Change in heart rate after treatment, 240' ([2]; 240'): +10 b/min
- Change in Blood Pressure after Treatment, 360' ([2]; 360'): -20 mm Hg
- Change in heart rate after treatment, 360' ([2]; 360'): +3 b/min
- Change in Blood Pressure after Treatment, 24h ([2]; 24h): -12 mm Hg
- Change in heart rate after treatment, 24h ([2]; 24h): +6 b/min
- Change in BP, 1 hr after dose, first day ([1]; 2 mg/kg os): -25 mm Hg
- Change in HR, 1 hr after dose, first day ([1]; 2 mg/kg os): 0 b/min
- Change in HR, 5 hr after dose, first day ([1]; 2 mg/kg os): -8 b/min
- Change in BP, 5 hrs after dose, first day ([1]; 2 mg/kg os): 0 mm Hg
- Change in BP, 1 hr after dose, fourth day ([1]; 2 mg/kg os): -26 mm Hg
- Change in HR, 1 hr after dose, fourth day ([1]; 2 mg/kg os): -2 b/min
- Change in HR, 5 hr after dose, fourth day ([1]; 2 mg/kg os): -5 b/min
- Change in BP, 5 hrs after dose, fourth day ([1]; 2 mg/kg os): -31 mm Hg
- Change in BP, 1 hr after dose, first day ([1]; 5 mg/kg os): -51 mm Hg
- Change in HR, 1 hr after dose, first day ([1]; 5 mg/kg os): +5 b/min
- Change in HR, 5 hr after dose, first day ([1]; 5 mg/kg os): +35 b/min
- Change in BP, 5 hrs after dose, first day ([1]; 5 mg/kg os): -41 mm Hg
- Change in BP, 1 hr after dose, fourth day ([1]; 5 mg/kg os): -45 mm Hg
- Change in HR, 1 hr after dose, fourth day ([1]; 5 mg/kg os): +25 b/min
- Change in HR, 5 hr after dose, fourth day ([1]; 5 mg/kg os): +20 b/min
- Change in BP, 5 hrs after dose, fourth day ([1]; 5 mg/kg os): -31 mm Hg
- LD50 at 168 h [3]: > 1000 mg/kg

SMILES: CCNC(=O)C(C#N)C[C@@H]1C[C@@H]2c3cccc4[nH]cc(c34)C[C@H]2N(C(C)C)C1 (stereo partly drawn) [Example 38, 2-Cyano-3-(6'-isopropylergoline-8'β)-N-ethyl propionamide]
- Change in BP, 1 hr after dose, first day ([1]; 5 mg/kg os): -20 mm Hg
- Change in BP, 5 hrs after dose, first day ([1]; 5 mg/kg os): -10 mm Hg
- Change in BP, 1 hr after dose, fourth day ([1]; 5 mg/kg os): -32 mm Hg
- Change in BP, 5 hrs after dose, fourth day ([1]; 5 mg/kg os): -28 mm Hg

SMILES: CCCN1C[C@H](CC(C#N)C(=O)NCC)C[C@@H]2c3cccc4[nH]cc(c34)C[C@H]21 (stereo partly drawn) [355/1281, 2-Cyano-3-(6'-n-propylergoline-8'β)-N-ethyl-propionamide]
- Change in BP, 1 hr after dose, first day ([1]; 5 mg/kg os): -25 mm Hg
- Change in BP, 5 hrs after dose, first day ([1]; 5 mg/kg os): -15 mm Hg
- Change in BP, 1 hr after dose, fourth day ([1]; 5 mg/kg os): -30 mm Hg
- Change in BP, 5 hrs after dose, fourth day ([1]; 5 mg/kg os): -35 mm Hg

SMILES: CCCN1C[C@H](CC(C#N)C(N)=O)C[C@@H]2c3cccc4[nH]cc(c34)C[C@H]21 (stereo partly drawn) [355/1282, 2-Cyano-3-(6'n-propylergoline-8'β)-propionamide]
- Change in BP, 1 hr after dose, first day ([1]; 2 mg/kg os): -20 mm Hg
- Change in BP, 5 hrs after dose, first day ([1]; 2 mg/kg os): -10 mm Hg
- Change in BP, 1 hr after dose, fourth day ([1]; 2 mg/kg os): -15 mm Hg
- Change in BP, 5 hrs after dose, fourth day ([1]; 2 mg/kg os): -25 mm Hg
- Change in BP, 1 hr after dose, first day ([1]; 5 mg/kg os): -40 mm Hg
- Change in BP, 5 hrs after dose, first day ([1]; 5 mg/kg os): -45 mm Hg
- Change in BP, 1 hr after dose, fourth day ([1]; 5 mg/kg os): -25 mm Hg
- Change in BP, 5 hrs after dose, fourth day ([1]; 5 mg/kg os): -30 mm Hg

SMILES: C=CCN1C[C@H](CC(C#N)C(=O)NCC)C[C@@H]2c3cccc4[nH]cc(c34)C[C@H]21 (stereo partly drawn) [355/1320, 2-Cyano-3-(6'-allylergoline-8'β)-N-ethylpropionamide]
- Change in BP, 1 hr after dose, first day ([1]; 5 mg/kg os): -30 mm Hg
- Change in BP, 5 hrs after dose, first day ([1]; 5 mg/kg os): -20 mm Hg
- Change in BP, 1 hr after dose, fourth day ([1]; 5 mg/kg os): -20 mm Hg
- Change in BP, 5 hrs after dose, fourth day ([1]; 5 mg/kg os): -15 mm Hg
